Experimental data from patent US7034035B2, “Fungicidal mono-, bi-, and tri-cycloheteroalkyl amides and their compositions, methods of use and preparation” (priority 1999, dated 2006).
Read-outs that look alike come from different tables or passages of the source.

What was measured:
[1] = system: Puccinia recondita—PUCCRT; assay: Brown Rust of Wheat, in vivo whole plant, 24 Hour Protectant; settings: inoculated after 24 hours; for pest or weed control at 100 ppm: Puccinia, read-out: PUCCRT in vivo 1 Day Protectant
[2] = system: Stagonospora nodorum (Leptosphaeria nodorum—LEPTNO); assay: Inhibition of in vitro fungal growth, LEPTNO; assay type: cell-based; design: inhibition of growth: dose or concentration left out as unconfirmed
[3] = system: Mycosphaerella graminicola (Septoria tritici—SEPTTR); assay: Inhibition of in vitro fungal growth, SEPTTR; assay type: cell-based; design: inhibition of growth: dose or concentration left out as unconfirmed
[4] = system: Rhizoctonia solani (RHIZSO); assay: microbe, parasite or virus in culture; assay type: cell-based
[5] = system: Leptosphaeria nodorum—LEPTNO; assay: Glume Blotch of Wheat, in vivo whole plant, 24 Hour Protectant; settings: inoculated after 24 hours; for pest or weed control at 100 ppm: Leptosphaeria, 24 h, read-out: LEPTNO in vivo 1 Day Protectant
[6] = system: Magnaporthe grisea (Pyricularia oryzae—PYRIOR); assay: microbe, parasite or virus in culture; assay type: cell-based
[7] = system: Erysiphe graminis—ERYSGT; assay: Powdery Mildew of Wheat, in vivo whole plant, 24 Hour Protectant; settings: for pest or weed control at 100 ppm: Erysiphe, in Triticum aestivum, 24 h, read-out: ERYSGT in vivo 1 Day Protectant
[8] = system: Septoria tritici—SEPTTR; assay: Leaf Blotch of Wheat, in vivo whole plant, 24 Hour Protectant; settings: inoculated after 24 hours; for pest or weed control at 100 ppm: Zymoseptoria tritici, read-out: SEPTTR in vivo 1 Day Protectant
[9] = system: Phytophthora infestans (PHYTIN); assay: microbe, parasite or virus in culture; assay type: cell-based
[10] = system: Ustilago maydis (USTIMA); assay: microbe, parasite or virus in culture; assay type: cell-based
[11] = system: Phytophthora infestans—PHYTIN; assay: whole plant or invertebrate; assay type: in vivo; settings: for pest or weed control at 100 ppm: Phytophthora, in Solanum lycopersicum, 24 h, read-out: PHYTIN in vivo 1 Day Protectant
[12] = wheat (cultivar Yuma), sprayed at 100 ppm, control of fungal infection vs untreated plants
[13] = wheat plants sprayed at 100 ppm, control vs untreated plants

Molecule | pest or weed control at 100 ppm [7] [%] | melting point | pest or weed control at 100 ppm [11] [%] | pest or weed control at 100 ppm [1, 13] [%] | pest or weed control at 100 ppm [5, 13] [%] | pest or weed control at 100 ppm [8, 13] [%] | RHIZSO in vitro Growth Inhibition [4] | USTIMA in vitro Growth Inhibition [10] | also measured
Cc1ccnc(C(=O)NC2C(=O)OC(=O)[C@H](Cc3ccccc3)[C@@H](OC(=O)C(C)C)[C@H](C)OC2=O)c1O (some centres unmarked) [Compound 237] | < 25 | 122 to 134 °C | < 25 | – | – | – | – | – | pest or weed control at 100 ppm [1, 12]: 75 to 100%; inhibition of growth ([2]; Leptosphaeria, in vitro fungal growth): < 80%; inhibition of growth ([3]; Zymoseptoria tritici, in vitro fungal growth): < 80%; inhibition of growth at 25 µg/mL ([4]; Rhizoctonia solani, read-out: RHIZSO in vitro Growth Inhibition): < 80%; pest or weed control at 100 ppm [5, 12]: 25 to 74%; inhibition of growth at 25 µg/mL ([6]; Pyricularia oryzae, read-out: PYRIOR in vitro Growth Inhibition): < 80%; pest or weed control at 100 ppm [8, 12]: 25 to 74%; inhibition of growth at 25 µg/mL ([9]; Phytophthora infestans, read-out: PHYTIN in vitro Growth Inhibition): < 80%; inhibition of growth at 25 µg/mL ([10]; Mycosarcoma maydis, read-out: USTIMA in vitro Growth Inhibition): < 80%
COc1ccnc(C(=O)Nc2cccc(CC3CC(C)(C)OC(C)(C)C3)c2)c1O [Compound 460] | 25 to 74 | 149 to 153 °C | < 25 | 25 to 74 | 25 to 74 | 25 to 74 | – | – | –
COc1ccnc(C(=O)NC2CC(C)(C)C(OC(=O)c3cccc(Cl)n3)C(C)(C)C2)c1O (centres unmarked) [Compound 269] | – | 55 to 56 °C | – | – | – | – | − (key: +: at least 80% growth inhibition; −: less than 80% growth inhibition) | − (key: +: at least 80% growth inhibition; −: less than 80% growth inhibition) | –
CC1(C)CC(NC(=O)c2ccnnc2O)CC(C)(C)C1 [Compound 539] | < 25 | 263 to 265 °C | < 25 | 25 to 74 | 25 to 74 | 25 to 74 | – | – | –
CC(C)C(=O)O[C@H]1[C@H](C)OC(=O)[C@@H](NC(=O)c2cccnc2O)COC(=O)[C@@H]1Cc1ccccc1 [Compound 523] | 25 to 74 | 188 to 190 °C (dec.) | 25 to 74 | 25 to 74 | 75 to 100 | 25 to 74 | – | – | –
N-(3-Hydroxy-4-Methoxy-2-Pyridylcarbonyl)-2-Amino-2-Deoxy-alpha-D-Glucopyranose [Compound 334] | – | – | – | – | – | – | − (key: +: at least 80% growth inhibition; −: less than 80% growth inhibition) | − (key: +: at least 80% growth inhibition; −: less than 80% growth inhibition) | PUCCRT in vivo 1 Day Protectant [1, 12]: − (<25% control of fungal infection); LEPTNO in vitro Growth Inhibition [2]: − (key: +: at least 80% growth inhibition; −: less than 80% growth inhibition); SEPTTR in vitro Growth Inhibition [3]: − (key: +: at least 80% growth inhibition; −: less than 80% growth inhibition); LEPTNO in vivo 1 Day Protectant [5, 12]: + (25-74% control of fungal infection); PYRIOR in vitro Growth Inhibition ([6]; in vitro fungal growth): − (less than 80% growth inhibition); ERYSGT in vivo 1 Day Protectant ([7]; wheat (cultivar Monon), sprayed at 100 ppm, inoculated after 24 hours, control of fungal infection vs untreated plants): − (<25% control of fungal infection); SEPTTR in vivo 1 Day Protectant [8, 12]: − (<25% control of fungal infection); PHYTIN in vitro Growth Inhibition ([9]; in vitro fungal growth): − (less than 80% growth inhibition); PHYTIN in vivo 1 Day Protectant ([11]; tomato (cultivar Rutgers), sprayed at 100 ppm, inoculated after 24 hours, control of fungal infection vs untreated plants): − (<25% control of fungal infection)
